Experimental data reported in US12616696B2, “Crystalline forms of (p)-3-chloro-4-((3,5-difluoropyridin-2-yl)methoxy)-2′-(2-(2-hydroxypropan-2-yl)pyrimidin-4-yl)-5′,6-dimethyl-2h-[1,4′-bipyridin]-2-one” (ACLARIS THERAPEUTICS, INC., priority 2020, dated 2026).

Experiments:
[1] = tested on: phospho-JNK; assay: Phosphoprotein analysis in PMA-differentiated U937 cells: phospho-JNK/total JNK; format: cell-based; details: Homo sapiens, U-937, read-out: pJNK/Total JNK EC50
Procedure: (§1) The JNK pathway leads to increased inflammation by boosting production of inflammatory cytokines. […] Classical p38 inhibitors block the phosphorylation of downstream substrates of p38 while elevating activity of parallel pathways such as JNK. Evaluation of the impact of different classes of p38 inhibitors on p38 and JNK pathway regulation was carried out using phospho-HSP27 and phosphor-JNK for the two pathways, respectively. Evaluation of the potency and efficacy of p38 inhibitors to impact phosphoprotein levels was carried out using the human U937 cell line. The U937 human pre-monocytic cell line was obtained from the American Type Culture Collection (Rockville, MD). These cells were differentiated to a monocytic/macrophage phenotype as described by Burnette (Burnette et al, (2009). SD0006: a potent, selective and orally available inhibitor of p38 MAP Kinase, Pharmacology 84(1):42-60). Suspension cells (approximately 0.5 million per milliliter in T75 cm^2 tissue culture flasks) were grown in RPMI containing 10% fetal bovine serum (FBS) plus antibiotics. On day one, phorbol 12-myristate 13-acetate (PMA, 20 ng/mL) was added to the culture flask and the cells were incubated overnight at 37° C./5% CO2. The cells were washed on day two by centrifuging and resuspending them in fresh media without PMA. […]

[2] = physchem; details: thermodynamic from solid; for solubility: 23 °C; for solubility at 1 h: 40 °C, Solubility at 40° C.
[3] = tested on: phospho-HSP27; assay: Phosphoprotein analysis in PMA-differentiated U937 cells: phospho-Hsp27/total Hsp27; format: cell-based; details: Homo sapiens, U-937, read-out: pHSP27/Total HSP27 IC50
Procedure: as §1

[4] = in vitro; details: 50 mg, Tmax (time interval where BAmax is recorded)
Procedure: Test System: The study was performed in the TNO dynamic, multi-compartmental in vitro system of the stomach and small intestine (tiny-TIM). The tiny-TIM system consists of a gastric compartment and one small intestinal compartment (FIG. 8). This compartment is composed of two glass units with a flexible silicone inner wall enclosing the luminal material. The space between the inner and outer walls is filled with water. Peristaltic mixing of the chyme is the result of alternate compression and relaxation of the flexible inner wall. The compartments are connected by peristaltic valve pumps that successively open and close, allowing the chyme to transit over time through the compartments. […] The set-points for gastrointestinal simulation are controlled and monitored by specific computer programs. […]
Filtration of released and dissolved/solubilized drug molecules from the intestinal lumen via a semi-permeable membrane unit (Fresenius plasmaFlux® P1dry) allowed the assessment of the so-called bio-accessible fraction, i.e. the fraction of the drug which is available for small intestinal absorption. […] The collected volume per time period was measured and sub-samples were taken, instantly diluted in 50% Acetonitrile in Milli-q water and stored at 2-10° C., protected from light, until analysis.

- EC50 [1]: 117 nM
- solubility ([2]; organic solvent or mixture, low solubility at RT): < 10000 µg/mL
- solubility ([2]; water, Solubility at RT): < 6000 µg/mL
- solubility at 1 h ([2]; organic solvent or mixture): > 9000 µg/mL
- solubility at 1 h ([2]; water): < 6000 µg/mL
- IC50 [3]: 1.15 nM
- Tmax [4]: 1 to 1.5 h
Structure (SMILES): Cc1cnc(-c2ccnc(C(C)(C)O)n2)cc1-n1c(C)cc(OCc2ncc(F)cc2F)c(Cl)c1=O (atropisomer, axis not shown; (P)) [Compound 49a, (P)-3-chloro-4-((3,5-difluoropyridin-2-yl)methoxy)-2′-(2-(2-hydroxypropan-2-yl)pyrimidin-4-yl)-5′,6-dimethyl-2H-[1,4′-bipyridin]-2-one]
